Measured values reported in PMC5951806, “Rapid labelling and covalent inhibition of intracellular native proteins using ligand-directed N-acyl-N-alkyl sulfonamide” (Nature Communications, 2018).

How the values were obtained:
Test in all cases: TMT LC-MSMS of 11-labelled proteins
Type in all cases: cell-based
[1] = target: tubulin beta chain (TUBB) (Homo sapiens, UniProt P07437)
[2] = target: Tubulin alpha-1B chain (TUBA1B) (Homo sapiens, UniProt P68363)
Serum albumin (ALB) = Serum albumin (ALB) (Homo sapiens, UniProt P02768)
Serum albumin (ALB), sequence (P02768 25-609): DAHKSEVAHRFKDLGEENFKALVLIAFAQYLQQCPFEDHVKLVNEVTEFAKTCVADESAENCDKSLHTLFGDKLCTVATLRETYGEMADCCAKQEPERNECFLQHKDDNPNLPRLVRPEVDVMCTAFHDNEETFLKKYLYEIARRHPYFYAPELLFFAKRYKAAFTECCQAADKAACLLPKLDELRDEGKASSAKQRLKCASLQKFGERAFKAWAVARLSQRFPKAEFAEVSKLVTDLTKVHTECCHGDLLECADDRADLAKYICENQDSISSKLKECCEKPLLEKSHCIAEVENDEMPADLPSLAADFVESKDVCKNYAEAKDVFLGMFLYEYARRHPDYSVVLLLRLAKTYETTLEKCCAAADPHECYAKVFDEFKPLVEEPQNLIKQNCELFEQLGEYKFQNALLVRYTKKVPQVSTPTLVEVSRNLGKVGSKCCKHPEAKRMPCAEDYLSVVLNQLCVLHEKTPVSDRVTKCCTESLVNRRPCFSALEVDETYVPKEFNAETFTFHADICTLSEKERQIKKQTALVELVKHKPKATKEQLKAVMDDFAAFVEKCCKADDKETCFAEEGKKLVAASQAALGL

[3] = sheet Exp1, SKBR3 cells, 11 0.5 µM 3 h vs DMSO
[4] = sheet Exp1, SKBR3 cells, 11 0.5 µM 3 h vs with PU-H71 10 µM
[5] = sheet Merged, SKBR3 cells, 11 0.5 µM 3 h vs DMSO
[6] = sheet Merged, SKBR3 cells, 11 0.5 µM 3 h vs with PU-H71 10 µM

Tubulin alpha-1B chain (TUBA1B), sequence (P68363 whole entry): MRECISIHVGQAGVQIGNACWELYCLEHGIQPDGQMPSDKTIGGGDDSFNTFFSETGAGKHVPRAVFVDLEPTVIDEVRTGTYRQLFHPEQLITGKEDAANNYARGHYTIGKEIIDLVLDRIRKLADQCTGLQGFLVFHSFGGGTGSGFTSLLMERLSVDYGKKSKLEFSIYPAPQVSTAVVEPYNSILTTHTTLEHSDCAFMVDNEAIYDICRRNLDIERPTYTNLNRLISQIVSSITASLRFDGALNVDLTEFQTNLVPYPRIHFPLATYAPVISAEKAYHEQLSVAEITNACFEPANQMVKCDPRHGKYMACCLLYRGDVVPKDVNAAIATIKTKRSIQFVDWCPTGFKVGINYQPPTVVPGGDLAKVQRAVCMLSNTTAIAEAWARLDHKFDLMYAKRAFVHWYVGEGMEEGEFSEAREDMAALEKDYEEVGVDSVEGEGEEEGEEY
Tubulin alpha-1B chain (TUBA1B), sequence (P07437 whole entry partner): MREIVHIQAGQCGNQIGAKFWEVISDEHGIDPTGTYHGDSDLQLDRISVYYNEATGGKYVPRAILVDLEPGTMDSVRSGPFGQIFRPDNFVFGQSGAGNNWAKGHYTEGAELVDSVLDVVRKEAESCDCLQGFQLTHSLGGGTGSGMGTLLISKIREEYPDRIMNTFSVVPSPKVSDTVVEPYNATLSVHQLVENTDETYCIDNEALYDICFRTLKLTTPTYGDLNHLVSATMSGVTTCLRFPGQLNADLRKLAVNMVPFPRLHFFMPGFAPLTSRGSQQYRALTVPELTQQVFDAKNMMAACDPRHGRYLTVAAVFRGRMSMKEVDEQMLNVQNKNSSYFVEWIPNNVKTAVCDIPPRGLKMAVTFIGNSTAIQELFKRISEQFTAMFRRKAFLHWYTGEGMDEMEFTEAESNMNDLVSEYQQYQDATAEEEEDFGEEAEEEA
tubulin beta chain (TUBB), sequence (P07437 whole entry): as the sequence (P07437 whole entry partner) above
tubulin beta chain (TUBB), sequence (P68363 whole entry partner): as the sequence (P68363 whole entry) above

CC(=O)Oc1ccc2c(c1)Oc1cc(OC(C)=O)ccc1C21OC(=O)c2cc(C(=O)NCCOCCOCCNC(=O)CCCC(=O)N(CC#N)S(=O)(=O)c3ccc(C(=O)NCCCn4c(Sc5cc6c(cc5I)OCO6)nc5c(N)ncnc54)cc3)ccc21 [compound 11]
Abundance Ratio: (11) / (11 with PU-H71) ([1]; Exp3, TUBB): 0.804 | Abundance Ratio: (11) / (DMSO) ([1]; Exp3, TUBB): 4.633 | Abundances (Grouped): 11 ([1]; Exp3, TUBB): 127.4 | Abundances (Grouped): 11 with PU-H71 ([1]; Exp3, TUBB): 158.4 | Abundance Ratio: (11) / (DMSO) [1, 3]: 3.833 | Abundance Ratio: (11) / (11 with PU-H71) [1, 4]: 0.775 | Abundance Ratio: (11) / (11 with PU-H71) ([1]; sheet Exp2, TUBB): 0.757 | Abundance Ratio: (11) / (DMSO) ([1]; sheet Exp2, TUBB): 3.139 | Abundances (Grouped): 11 ([1]; sheet Exp2, TUBB): 115.5 | Abundances (Grouped): 11 with PU-H71 ([1]; sheet Exp2, TUBB): 152.6 | Abundance Ratio: (11) / (DMSO) [1, 5]: 3.599 | Abundance Ratio: (11) / (11 with PU-H71) [1, 6]: 0.804 | Abundance Ratio: (11) / (11 with PU-H71) ([2]; Exp3, TUBA1B): 0.849 | Abundance Ratio: (11) / (DMSO) ([2]; Exp3, TUBA1B): 4.864 | Abundances (Grouped): 11 ([2]; Exp3, TUBA1B): 236.9 | Abundances (Grouped): 11 with PU-H71 ([2]; Exp3, TUBA1B): 279 | Abundance Ratio: (11) / (DMSO) [2, 3]: 6.965 | Abundance Ratio: (11) / (11 with PU-H71) [2, 4]: 0.862 | Abundance Ratio: (11) / (11 with PU-H71) ([2]; sheet Exp2, TUBA1B): 0.827 | Abundance Ratio: (11) / (DMSO) ([2]; sheet Exp2, TUBA1B): 7.231 | Abundances (Grouped): 11 ([2]; sheet Exp2, TUBA1B): 197.4 | Abundances (Grouped): 11 with PU-H71 ([2]; sheet Exp2, TUBA1B): 238.8 | Abundance Ratio: (11) / (DMSO) [2, 5]: 6.965 | Abundance Ratio: (11) / (11 with PU-H71) [2, 6]: 0.862 | Abundance Ratio: (11) / (11 with PU-H71) (Serum albumin (ALB); Exp3, ALB): 0.706 | Abundance Ratio: (11) / (DMSO) (Serum albumin (ALB); Exp3, ALB): 1.152 | Abundances (Grouped): 11 (Serum albumin (ALB); Exp3, ALB): 132.6 | Abundances (Grouped): 11 with PU-H71 (Serum albumin (ALB); Exp3, ALB): 187.7 | Abundance Ratio: (11) / (DMSO) (Serum albumin (ALB); [3]): 0.969 | Abundance Ratio: (11) / (11 with PU-H71) (Serum albumin (ALB); [4]): 0.846 | Abundance Ratio: (11) / (11 with PU-H71) (Serum albumin (ALB); sheet Exp2, ALB): 0.796 | Abundance Ratio: (11) / (DMSO) (Serum albumin (ALB); sheet Exp2, ALB): 0.967 | Abundances (Grouped): 11 (Serum albumin (ALB); sheet Exp2, ALB): 219.9 | Abundances (Grouped): 11 with PU-H71 (Serum albumin (ALB); sheet Exp2, ALB): 276.3 | Abundance Ratio: (11) / (DMSO) (Serum albumin (ALB); [5]): 0.969 | Abundance Ratio: (11) / (11 with PU-H71) (Serum albumin (ALB); [6]): 0.846
